In US11241440B2, “Dihydrooxadiazine compounds for treating infections and cancer” (VALORALIA I MÁS D, SL, priority 2016, dated 2022):

Legend:
M. fortuitum = assay: Kirby-Bauer disk diffusion susceptibility test; further: key: I = intermediate activity; S = susceptibility; R = Resistance; assay type: cell-based; details: M. fortuitum strain 1080, isolation year 2011
M. abscessus = assay: Kirby-Bauer disk diffusion susceptibility test; further: key: I = intermediate activity; S = susceptibility; R = Resistance; assay type: cell-based, Mycobacterium abscessus; details: M. abscessus strain 690, isolation year 2012
N. cyriacigeorgica = assay: Kirby-Bauer disk diffusion susceptibility test; assay type: cell-based
M. chelonae = assay: Kirby-Bauer disk diffusion susceptibility test; assay type: cell-based; details: M. chelonae strain 870, isolation year 2011
N. carnea = assay: Kirby-Bauer disk diffusion susceptibility test; assay type: cell-based, Nocardia carnea
T. pulmonis = assay: Kirby-Bauer disk diffusion susceptibility test; assay type: cell-based, Tsukamurella pulmonis
[1] = test system: equine herpes virus type 1 (EHV-1); assay: Viral titer reduction; assay type: cell-based; details: 10 μg/ml
A. terreus = A. terreus ATe-001; cited from earlier work; further: key: I = intermediate activity; S = susceptibility; R = Resistance
A. fumigatus = A. fumigatus AFu-001; cited from earlier work; further: key: I = intermediate activity; S = susceptibility; R = Resistance
C. parapsilosis = C. parapsilosis CP-007; cited from earlier work; further: key: I = intermediate activity; S = susceptibility; R = Resistance
A. flavus = A. flavus AF-001; cited from earlier work; further: key: I = intermediate activity; S = susceptibility; R = Resistance
S. epidermidis = assay: Kirby-Bauer disk diffusion susceptibility test; assay type: cell-based, Staphylococcus epidermidis; further: key: I = intermediate activity; S = susceptibility; R = Resistance
A. baumannii = assay: Kirby-Bauer disk diffusion susceptibility test; assay type: cell-based, Acinetobacter baumannii; further: key: I = intermediate activity; S = susceptibility; R = Resistance
S. aureus = assay: Kirby-Bauer disk diffusion susceptibility test; assay type: cell-based, Staphylococcus aureus; further: key: I = intermediate activity; S = susceptibility; R = Resistance
B. cereus = assay: Kirby-Bauer disk diffusion susceptibility test; assay type: cell-based, Bacillus cereus; further: key: I = intermediate activity; S = susceptibility; R = Resistance
Aspergillus terreus = assay: EUCAST broth dilution antifungal susceptibility test (MIC); assay type: cell-based; details: 100% inhibition, 24 hours at 35° C., dilution range 64 to 0.12 mg/l
Method: (§1) Filamentous fungi and yeasts strains, from clinical origin, were supplied by Microbiology Service from The Princess Hospital, Madrid. They are detailed in Table III. Filamentous fungi and yeast cells suspensions in distilled water was prepared from a culture of 24-48 h, depending on species, in Sabouraud agar. Each suspension was adjusted to a fixed size inoculum of 1-5×10^8 CFU/ml with a spectrophotometer (Ferraro, M J National Committee for Clinical Laboratory Standards. 2000). Antifungal susceptibility tests were developed following the standardized methodology detailed by the European Committee on Antimicrobial Susceptibility Testing (EUCAST) documents 7.2 (method for the determination of broth dilution minimum inhibitory concentrations of antifungal agents for yeasts EDef 7.2) and 9.2 (Method for the determination of broth dilution minimum inhibitory concentrations of antifungal agents for conidia forming foulds). The compound was dissolved in DMSO and diluted with RPMI plates with 2% glucose to pH 7 with MOPS buffer. […] Plates were inoculated with a yeast suspension or filamentous fungal spores (1-5×10^5 cls/ml). The results were evaluated after 24 hours incubation at 35° C. and absorbance reading at 530 nm.

Aspergillus flavus = assay: as above; assay type: cell-based; details: 100% inhibition, 24 hours at 35° C., dilution range 64 to 0.12 mg/l
Method: as §1

Aspergillus fumigatus = assay: as above; assay type: cell-based; details: 100% inhibition, 24 hours at 35° C., dilution range 64 to 0.12 mg/l
Method: as §1

Scedosporium prolificans = assay: as above; assay type: cell-based; details: 100% inhibition, 24 hours at 35° C., dilution range 64 to 0.12 mg/l
Method: as §1

S. prolificans = S. prolificans SP-003; cited from earlier work; further: key: I = intermediate activity; S = susceptibility; R = Resistance
[2] = N. cyriacigeorgica strain 30, isolation year 2005
[3] = N. cyriacigeorgica strain 199, isolation year 2005
[4] = N. carnea strain 40, isolation year 2011
[5] = N. carnea strain 769, isolation year 2009
[6] = T. pulmonis strain 40, isolation year 2015
[7] = T. pulmonis strain 1991, isolation year 2009
[8] = S. epidermidis strain 188, isolation year 2009
[9] = S. epidermidis strain 982, isolation year 2006
[10] = A. baumannii strain 300, isolation year 2001
[11] = A. baumannii strain 1301, isolation year 2009
[12] = S. aureus strain 282, isolation year 2005
[13] = S. aureus strain 890, isolation year 2010
[14] = B. cereus strain 25, isolation year 2014
[15] = B. cereus strain 182, isolation year 2013

| Compound | Characteristics of strains: susceptibility or resistance (M. fortuitum) | Characteristics of strains: susceptibility or resistance (M. abscessus) | Characteristics of strains: susceptibility or resistance (N. cyriacigeorgica; [2]) | Characteristics of strains: susceptibility or resistance (N. cyriacigeorgica; [3]) | Characteristics of strains: susceptibility or resistance (N. carnea; [4]) | Characteristics of strains: susceptibility or resistance (N. carnea; [5]) | Characteristics of strains: susceptibility or resistance (T. pulmonis; [6]) | Characteristics of strains: susceptibility or resistance (T. pulmonis; [7]) | Characteristics of the strains: susceptibility class (A. terreus) | Characteristics of the strains: susceptibility class (A. fumigatus) | Characteristics of the strains: susceptibility class (C. parapsilosis) | Characteristics of the strains: susceptibility class (A. flavus) | other results |
| --- | --- | --- | --- | --- | --- | --- | --- | --- | --- | --- | --- | --- | --- |
| CC(=O)NC[C@H]1CN(c2ccc(N3CCOCC3)c(F)c2)C(=O)O1 [LIN, Linezolid] | R | S | S | S | S | S | R | S |  |  |  |  | Characteristics of strains: susceptibility or resistance (M. chelonae): R |
| Nc1nc(O)c2ncn(COC(CO)CO)c2n1 [GCV, ganciclovir] |  |  |  |  |  |  |  |  |  |  |  |  | reduction of the titer (inhibition) [1]: 1.8 logarithms |
| CC(=O)N1CCN(c2ccc(OCC3COC(Cn4ccnc4)(c4ccc(Cl)cc4Cl)O3)cc2)CC1 (stereo not drawn) [Ketoconazole] |  |  |  |  |  |  |  |  | S | S | S | S |  |
| NCC[C@H](O)C(=O)N[C@@H]1C[C@H](N)[C@@H](O[C@H]2O[C@H](CN)[C@@H](O)[C@H](O)[C@H]2O)[C@H](O)[C@H]1O[C@H]1O[C@H](CO)[C@@H](O)[C@H](N)[C@H]1O [AMK, Amikacin] |  |  | S | R | R | S | R | S |  |  |  |  | Characteristics of strains: susceptibility or resistance (S. epidermidis; [8]): S; Characteristics of strains: susceptibility or resistance (S. epidermidis; [9]): S; Characteristics of strains: susceptibility or resistance (A. baumannii; [10]): R; Characteristics of strains: susceptibility or resistance (A. baumannii; [11]): S; Characteristics of strains: susceptibility or resistance (S. aureus; [12]): S; Characteristics of strains: susceptibility or resistance (S. aureus; [13]): S |
| CC[C@H]1OC(=O)[C@H](C)[C@@H](O[C@H]2C[C@@](C)(OC)[C@@H](O)[C@H](C)O2)[C@H](C)[C@@H](O[C@@H]2O[C@H](C)C[C@H](N(C)C)[C@H]2O)[C@](C)(O)C[C@@H](C)C(=O)[C@H](C)[C@@H](O)[C@]1(C)O [ERI, Erythromycin] | R | S | R | R | R | R | R | S |  |  |  |  | Characteristics of strains: susceptibility or resistance (B. cereus; [14]): R; Characteristics of strains: susceptibility or resistance (B. cereus; [15]): R; Characteristics of strains: susceptibility or resistance (S. epidermidis; [8]): S; Characteristics of strains: susceptibility or resistance (S. epidermidis; [9]): R; Characteristics of strains: susceptibility or resistance (M. chelonae): R; Characteristics of strains: susceptibility or resistance (S. aureus; [12]): R; Characteristics of strains: susceptibility or resistance (S. aureus; [13]): R |
| OC(Cn1cncn1)(Cn1cncn1)c1ccc(F)cc1F [Fluconazole] |  |  |  |  |  |  |  |  | R | R | S | R |  |
| Penicillin | R | R |  |  |  |  |  |  |  |  |  |  | Characteristics of strains: susceptibility or resistance (B. cereus; [14]): S; Characteristics of strains: susceptibility or resistance (B. cereus; [15]): S |
| C[C@@H]1[C@H](O)[C@@H](C)/C=C/C=C/C=C/C=C/C=C/C=C/C=C/[C@H](O[C@@H]2O[C@H](C)[C@@H](O)[C@H](N)[C@@H]2O)C[C@@H]2O[C@](O)(C[C@@H](O)C[C@@H](O)[C@H](O)CC[C@@H](O)C[C@@H](O)CC(=O)O[C@H]1C)C[C@H](O)[C@H]2C(=O)O [Amphotericin B] |  |  |  |  |  |  |  |  | I | S | I | I | MIC (minimum inhibitory concentration) (Aspergillus terreus): 2; MIC (minimum inhibitory concentration) (Aspergillus flavus): 1; MIC (minimum inhibitory concentration) (Aspergillus fumigatus): 0.5; MIC (minimum inhibitory concentration) (Scedosporium prolificans): >16; Characteristics of the strains: susceptibility class (S. prolificans): R |
| Clc1ccccc1C(c1ccccc1)(c1ccccc1)n1ccnc1 [Clotrimazole] |  |  |  |  |  |  |  |  | S | S | S | S |  |
| C[C@@H](O)[C@H]1C(=O)N2C(C(=O)O)=C(SCCN=CN)C[C@H]12 [IMP, Imipenem] | R | R | S | R | R | S | S | S |  |  |  |  | Characteristics of strains: susceptibility or resistance (M. chelonae): R; Characteristics of strains: susceptibility or resistance (A. baumannii; [10]): R; Characteristics of strains: susceptibility or resistance (A. baumannii; [11]): S |
| C[C@@H](c1ncncc1F)[C@](O)(Cn1cncn1)c1ccc(F)cc1F [Voriconazole] |  |  |  |  |  |  |  |  |  |  |  |  | MIC (minimum inhibitory concentration) (Aspergillus terreus): 0.5; MIC (minimum inhibitory concentration) (Aspergillus flavus): 1; MIC (minimum inhibitory concentration) (Aspergillus fumigatus): 0.5; MIC (minimum inhibitory concentration) (Scedosporium prolificans): >8; Characteristics of the strains: susceptibility class (S. prolificans): R |
